Ends that are not written are not given here.
Assays:
C. glabrata ATCC22019 = details: fungus
Procedure, shortened: (§1)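 Log-phase cells grown in MH (bacteria) or SD (fungi) medium at 37 °C were plated at 1×10^5 CFU/ml with 2-fold serially diluted peptide (1-256 μM solutions added at twice final concentration). After 12 h at 37 °C, MIC was taken as the first clear well by eye, in triplicate.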

[1] = system: E-1b, clinical isolated drug-resistant strain ESBL; details: strain E-1b (ESBL)
Procedure, shortened: as §1

[2] = system: E-4b, clinical isolated drug-resistant strain ESBL; details: strain E-4b (ESBL)
Procedure, shortened: as §1

[3] = system: P-4c, clinical isolated drug-resistant strain PA; details: strain P-4c (PA)
Procedure, shortened: as §1

E. coli (ATCC 25922) = assay: Mouse septic peritonitis model, survival; type: in vivo, Kunming mice; details: 20 mg/kg intraperitoneally one hour after E. coli inoculation, 7 days of observation
Description: The determination of the in vivo antibacterial activity of the antibacterial polypeptide compounds is to reflect the antibacterial activity in vivo by detecting the survival rate of mice infected with bacteria or fungi.
Taking compounds 2, 8, 9, 13 and 15 of the present invention as examples, the in vivo antibacterial effects of the antibacterial polypeptide compounds were analyzed. The mice used in this test were Kunming mice, which were placed in constant-temperature environment (22±1° C.). Simply, 36 Kunming mice (18-22 g of body weight) were randomly divided into 6 groups and intraperitoneally injected with 0.2 ml of 3×10^8 CFU/mL E. coli (ATCC 25922) on Day 1 to establish mouse septic peritonitis model. The mice were administered intraperitoneally one hour after inoculation with the bacteria, and then the compounds 2, 8, 9, 13 and 15 were injected intraperitoneally at a dose of 20 mg/kg of body weight. Polymyxin B (20 mg/kg) was selected as a positive reference control, and a negative control group received intraperitoneal injection of sterile saline. After 7 days of observation, the survival rates of mice in administration groups and control groups were calculated to create survival curves.

[4] = system: human cervical cancer cell Hela; assay: Cytotoxicity, MTT colorimetry; type: cell-based
Description: (§2) For cytotoxicity determination, the MTT colorimetry was used to evaluate the effects of the compounds on the proliferation of human cervical cancer cell Hela, human embryonic renal epithelial cell HEK293 and mouse mononuclear macrophage RAW264.7.
(§3) Taking compounds 2, 8, 9, 13 and 15 of the present invention as examples, the cytotoxicity of the antibacterial polypeptide compounds was analyzed. Three cell lines were employed for the present invention, namely human cervical cancer cell Hela, human embryonic renal epithelial cell HEK293 and mouse mononuclear macrophage RAW264.7. Hela cells were cultured in RPMI 1640 medium with 10% newborn calf serum, HEK293 cells and RAW264.7 cells were cultured in DMEM medium with 10% fetal bovine serum. Simply, cells (1×10^4 cells/well) were inoculated to a 96-well plate and incubated in an incubator set to 5% CO2 at 37° C. After 24 hours, compounds of different concentrations were added and incubated in the 5% CO2 incubator. After 24 hours, 20 μL of MTT solution with a concentration of 5 mg/mL was added to each well and incubated for 4 hours. After that, the medium was removed with a pipet, and 150 μL of DMSO added to dissolve the purple-blue formazan crystals. The solution was shaken in an oscillator for 5 mins before detecting the absorbance value at 570 nm using the ELISA reader, and then the survival rate was calculated with the formula: (OD dosing group/OD control group)×100% (n=3).

[5] = system: human embryonic renal epithelial cell HEK293; assay: Cytotoxicity, MTT colorimetry; type: cell-based
Description: as §2, §3

[6] = system: mouse mononuclear macrophage RAW264.7; assay: Cytotoxicity, MTT colorimetry; type: cell-based
Description: as §2, §3

Substance | MIC C. glabrata ATCC22019 (C. glabrata ATCC22019) | MIC [1] | MIC [2] | MIC [3] | survival rate of mice (E. coli (ATCC 25922)) | effect on proliferation (inhibitory activity) [4] | effect on proliferation (inhibitory activity) [5] | effect on proliferation (inhibitory activity) [6]
Pro-Phe-Lys-Leu-Ser-Leu-His-Leu-NH2 (PFKLSLHL-NH2) [Compound J-1, reference compound] | 64 µM | 32 µM | 32 µM | 32 µM | about 50% |  |  | 
Pro-Trp-Orn-Leu-Orn-Leu-His-Leu-NH2 (PWXLXLHL; HELM PEPTIDE1{P.W.[Orn].L.[Orn].L.H.L.[am]}$$$$V2.0; N-terminus assumed; SMILES CC(C)C[C@H](NC(=O)[C@H](Cc1c[nH]cn1)NC(=O)[C@H](CC(C)C)NC(=O)[C@H](CCCN)NC(=O)[C@H](CC(C)C)NC(=O)[C@H](CCCN)NC(=O)[C@H](Cc1c[nH]c2ccccc12)NC(=O)[C@@H]1CCCN1)C(N)=O) [Compound 9] | 16 µM | 8 µM | 8 µM | 8 µM |  | no inhibitory activity | no inhibitory activity | no inhibitory activity
